# Test results from US20110166223A1, “METHODS OF INHIBITING FGFR3 SIGNALING” (CEDARS-SINAI MEDICAL CENTER, priority 2008, published 2011).
# Tests used:
# GSA subunit = GSA subunit (Homo sapiens, UniProt P63092); details: Hohenegger, et al., 1998; cited from earlier work
# [1] = biological target: T1, recombinant tyrosine kinase (TK) domain of FGFR3 (Homo sapiens, UniProt P22607); experiment: Cell-free FGFR3 kinase assay with STAT1 as substrate; format: biochemical; details: for effect on FGFR3 kinase activity (in words): added directly to the kinase reaction, FIG. 4
# T1 construct: recombinant tyrosine kinase (TK) domain of FGFR3 (Glu-322-Thr-806; Cell Signaling); purchased Cell Signaling
# Description: FIG. 4, in accordance with an embodiment herein, depicts 4,4′,4″,4′″-[carbonyl-bis[imino-5,1,3-benzenetriyl bis-{carbonylimino}]]tetrakis-{benzene-1,3-disulfonic acid} inhibits FGFR3 activity in a kinase assay. (a, b) Cell-free kinase assays were carried out as described herein, with recombinant tyrosine kinase (TK) domain of FGFR3 as a kinase, recombinant STAT1 as a substrate, and NF449 added directly to the kinase reaction. FGFR3-mediated phosphorylation of STAT1 was detected by WB with P-STAT1 (Y^701) antibody. The membrane was reprobed with FGFR3 and STAT1 antibodies to control for kinase and substrate quantity. The sample with ATP omitted serves as a negative control for the kinase reaction. Note the FGFR3-mediated phosphorylation of STAT1 is inhibited by 4,4′,4″,4′″-[carbonyl-bis[imino-5,1,3-benzenetriyl bis-{carbonylimino}]]tetrakis-{benzene-1,3-disulfonic acid}. The P-STAT1 and STAT1 signal was quantified by densitometry and expressed as a ratio between P-STAT1 and STAT1 signal for each given sample (b, lower graph). (c) The FGFR3 kinase assay was carried-out as described in (a) with 4,4′,4″,4′″-[carbonyl-bis[imino-5,1,3-benzenetriyl bis-{carbonylimino}]]tetrakis-{benzene-1,3-disulfonic acid}, 8,8′-[carbonylbis[imino-3,1-phenylenecarbonylimino{4-methyl-3,1-phenylene}carbonylimino]]bis-1,3,5-naphthalenetrisulfonic acid or 8,8′-[carbonylbis[imino-3,1-phenylene]]bis-{1,3,5-naphthalenetrisulfonic acid} added to the kinase reaction. Note the differential effects of 8,8′-[carbonylbis[imino-3,1-phenylenecarbonylimino{4-methyl-3,1-phenylene}carbonylimino]]bis-1,3,5-naphthalenetrisulfonic acid and 8,8′-[carbonylbis[imino-3,1-phenylene]]Bis-{1,3,5-naphthalenetrisulfonic acid} on the FGFR3-mediated phosphorylation of STAT1, which corresponds to their activity in the RCS growth-arrest experiment (lower graph). Data are an average from four wells with the indicated standard deviation. Statistically significant rescue of the growth arrest is indicated (Student's I-test; *-p<0.01).
# OPM2 and KMS11 cells were lysed in ice-cold immunoprecipitation buffer (50 mM Tris-HCl pH 7.4, 150 mM NaCl, 0.5% NP-40, 1 mM EDTA, 25 mM NaF) supplemented with proteinase inhibitors and 10 mM sodium orthovanadate. Protein samples were resolved by SDS-PAGE and transferred onto a PVDF membrane. The following antibodies were used: Erk1/2, P-Erk1/2^T202/Y204, STAT1, P-STAT1^Y701 (Cell Signaling, Beverly, Mass.) and FGFR3 (Santa Cruz Biotechnology, Santa Cruz, Calif.). Western blotting signal was quantified by determining the integrated optical density (I.O.D.) of a given band using Scion Image software (Scion Corporation, Frederick, Mass.). Immunoprecipitations and FGFR3 kinase assays were performed as described. Briefly, the pRK7 vector encoding C-terminally FLAG-tagged K650E-FGFR3 was transfected into CHO cells using FuGENE6 reagent according to the manufacturer's protocol (Roche Applied Science, Indianapolis, Ind.). 48 hours after transfection, cells were treated with 20 ng/ml of FGF2 for 15 minutes and K650E-FGFR3 was immunoprecipitated from 800 μg of cell lysate protein using 4 μg of anti-FLAG antibody (Sigma-Aldrich, St. Louis, Mo.). Cells transfected with a plasmid encoding green fluorescent protein (pCCEY) serve as a negative control for the immunoprecipitation. Immunocomplexes were washed two times with kinase buffer (60 mM HEPES-NaOH pH 7.5, 3 mM MgCl2, 3 mM MnCl2, 3 μM Na3VO4, 1.2 mM dithiothreitol), and the kinase reactions were performed for 30 minutes at 30° C. in the presence of 2.5 μg of polyethylene glycol, 10 μM ATP, 300 ng of recombinant STAT1 (Active Motif, Carlsbad, Calif.) as a substrate, and NF449 added directly to the kinase reaction. Kinase assays utilizing recombinant tyrosine kinase (TK) domain of FGFR3 (Glu-322-Thr-806; Cell Signaling) were carried-out similarly, with 300 ng of kinase used in 50 μl reaction, and suramin, NF449 and NF023 added directly to the kinase reaction. […]
# T1 sequence (P22607 322-806): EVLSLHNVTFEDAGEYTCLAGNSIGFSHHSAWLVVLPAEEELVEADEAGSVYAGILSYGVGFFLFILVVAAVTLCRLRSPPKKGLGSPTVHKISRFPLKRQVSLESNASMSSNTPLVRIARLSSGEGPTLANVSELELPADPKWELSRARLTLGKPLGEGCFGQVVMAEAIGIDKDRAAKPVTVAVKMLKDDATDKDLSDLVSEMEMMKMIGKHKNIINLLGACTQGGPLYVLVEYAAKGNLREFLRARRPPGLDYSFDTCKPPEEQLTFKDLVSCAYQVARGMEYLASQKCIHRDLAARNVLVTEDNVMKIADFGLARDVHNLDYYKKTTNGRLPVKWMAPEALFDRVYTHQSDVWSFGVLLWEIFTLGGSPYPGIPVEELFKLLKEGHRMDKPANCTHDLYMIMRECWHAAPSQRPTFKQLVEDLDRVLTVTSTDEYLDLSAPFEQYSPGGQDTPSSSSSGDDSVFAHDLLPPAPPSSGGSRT
# Sequence of GSA subunit (P63092 whole entry): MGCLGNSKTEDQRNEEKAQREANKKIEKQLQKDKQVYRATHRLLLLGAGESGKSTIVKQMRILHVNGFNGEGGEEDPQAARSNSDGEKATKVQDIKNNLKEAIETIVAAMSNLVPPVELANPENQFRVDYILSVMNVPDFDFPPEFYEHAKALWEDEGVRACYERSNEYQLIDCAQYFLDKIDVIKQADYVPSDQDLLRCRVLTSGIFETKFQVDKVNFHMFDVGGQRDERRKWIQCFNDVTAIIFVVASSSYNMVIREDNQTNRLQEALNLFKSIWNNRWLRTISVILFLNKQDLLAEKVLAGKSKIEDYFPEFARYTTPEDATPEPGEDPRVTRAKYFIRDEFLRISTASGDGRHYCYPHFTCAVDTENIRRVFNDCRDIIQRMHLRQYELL
compound,measurement,setting,value
"O=C(Nc1cc(C(=O)Nc2ccc(S(=O)(=O)O)cc2S(=O)(=O)O)cc(C(=O)Nc2ccc(S(=O)(=O)O)cc2S(=O)(=O)O)c1)Nc1cc(C(=O)Nc2ccc(S(=O)(=O)O)cc2S(=O)(=O)O)cc(C(=O)Nc2ccc(S(=O)(=O)O)cc2S(=O)(=O)O)c1 [NF449, 4,4′,4″,4′″-[carbonyl-bis[imino-5,1,3-benzenetriylbis-{carbonylimino}]]tetrakis-{benzene-1,3-disulfonic acid}]",concentration needed to inhibit GSA,GSA subunit,0.14 µM
same,inhibition of FGFR3 kinase activity,"[1]; 0.1-30 μM range, FIG. 4b",some inhibition of FGFR3 kinase activity at all concentrations
same,FGFR3-mediated tyrosine phosphorylation of STAT1,"[1]; 5-30 μM NF449 concentration range, FIG. 4a",inhibited at all concentrations
same,concentration necessary to achieve more than 50% inhibition of FGFR3 kinase activity,"[1]; FIG. 4b, densitometry P-STAT1/STAT1",≥ 2 µM
same,effect on FGFR3 kinase activity (in words),[1],inhibited the FGFR3-mediated tyrosine phosphorylation of STAT1
same,effect on FGFR3 kinase activity (in words),"[1]; listed as 4,4′,4″,4′″-[carbonyl-bis[imino-5,1,3-benzenetriyl bis-{carbonylimino}]]tetrakis",inhibited
same,concentration range inhibiting FGFR3 kinase activity,[1]; comparison with SU5402,2 to 20 µM
